Biological target: T1, Lipolase® 100L (Thermomyces lanuginosus, UniProt O59952)
T1 construct: purchased Sigma-Aldrich
T1 sequence (O59952 23-291): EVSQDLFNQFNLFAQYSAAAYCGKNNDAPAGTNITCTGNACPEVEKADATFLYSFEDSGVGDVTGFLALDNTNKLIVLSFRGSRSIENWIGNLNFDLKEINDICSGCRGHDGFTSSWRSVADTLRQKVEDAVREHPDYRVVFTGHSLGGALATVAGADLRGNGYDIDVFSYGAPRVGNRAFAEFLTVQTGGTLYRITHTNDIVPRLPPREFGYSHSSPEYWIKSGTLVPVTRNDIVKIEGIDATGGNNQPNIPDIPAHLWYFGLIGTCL
Assay: Lipase storage stability in liquid formulations at 37° C. (pNP-valerate activity)
Format: biochemical, Thermomyces lanuginosa
Settings: for lipase activity, 3 d: 3 d storage at 37° C.; for lipase activity, 7 d: 7 d storage at 37° C.; for lipase activity, 14 d: 14 d storage at 37° C.; for lipase activity, 21 d: 21 d storage at 37° C.; for lipase activity, 28 d: 28 d storage at 37° C.; for lipase activity, 35 d: 35 d storage at 37° C.; for lipase activity, T0: relative to 100% value of reference formulation at time 0
Description: The storage stability of Lipase was assessed at 37° C.
Base test formulations were manufactured by making base formulations I to V by mixing the components according to Table 1.
The respective component (a) or comparative compound was added, if applicable, to the respective base formulation in amounts as indicated in Table 1.
Lipase used: Lipolase® 100L (CAS-No. 9001-62-1, EC-No. 232-619-9) was purchased from Sigma-Aldrich.
The amount of lipase as provided in Table 1 refers to active protein.
Water was added to accomplish the balance to 100.
Lipolase activity at certain points in time as indicated in Table 2 was be determined by employing pNitrophenol-valerate (2.4 mM pNP-C5 in 100 mM Tris pH 8.0, 0.01% Triton X100) as a substrate. The absorption at 405 nm was measured at 20° C. every 30 seconds over 5 minutes.
The slope (absorbance increase at 405 nm per minute) of the time dependent absorption-curve is directly proportional to the activity of the lipase.
The […] activity values provided in Table 2 were calculated referring to the 100% value determined in the reference formulation at the time 0.
The nomenclature of formulations is as follows: the Roman number before the full stop characterizes the base formulation, the Arabian number the type of compound (A.# compound according to invention (component (a)); (B.#) comparative compound).

[1] = base formulation I. (Lipolase 0.2 wt%, tested compound 2.5 wt%)
[2] = base formulation II. (Lipolase 0.2 wt%, tested compound 2.5 wt%)
[3] = base formulation III. (Lipolase 0.2 wt%, tested compound 2.0 wt%)
[4] = base formulation IV. (Lipolase 0.2 wt%, tested compound 2.0 wt%)
[5] = base formulation V. (Lipolase 0.2 wt%, tested compound 2.0 wt%)

SMILES	lipase activity, 3 d [1] [%]	lipase activity, 7 d [1] [%]	lipase activity, 14 d [1] [%]	lipase activity, 21 d [1] [%]	lipase activity, 28 d [1] [%]	lipase activity, 35 d [1] [%]	lipase activity, T0 [1] [%]	lipase activity, 3 d [2] [%]	lipase activity, 7 d [2] [%]	lipase activity, 14 d [2] [%]	lipase activity, 21 d [2] [%]	lipase activity, 28 d [2] [%]	lipase activity, 35 d [2] [%]	lipase activity, T0 [2] [%]	lipase activity, 3 d [3] [%]	lipase activity, 7 d [3] [%]	lipase activity, 14 d [3] [%]	lipase activity, 21 d [3] [%]	lipase activity, 28 d [3] [%]	lipase activity, 35 d [3] [%]	also measured
CCOC(=O)CC(O)(CC(=O)OCC)C(=O)OCC [A.1, Triethylcitrate]	102	96	94	87	85	80	100	101	94	90	88	83	80	100	98	96	93	90	85	82	lipase activity, T0 [3]: 100%; lipase activity, 3 d [4]: 96%; lipase activity, 7 d [4]: 94%; lipase activity, 14 d [4]: 93%; lipase activity, 21 d [4]: 88%; lipase activity, 28 d [4]: 85%; lipase activity, 35 d [4]: 82%; lipase activity, T0 [4]: 98%; lipase activity, 3 d [5]: 96%; lipase activity, 7 d [5]: 93%; lipase activity, 14 d [5]: 89%; lipase activity, 21 d [5]: 84%; lipase activity, 28 d [5]: 81%; lipase activity, 35 d [5]: 79%; lipase activity, T0 [5]: 100%
CCCOC(=O)CC(O)(CC(=O)OCCC)C(=O)OCCC [A.2, Tripropylcitrate]	100	98	94	90	87	82	101	–	–	–	–	–	–	–	100	101	97	94	90	87	lipase activity, T0 [3]: 102%
CCCCOC(=O)CC(O)(CC(=O)OCCCC)C(=O)OCCCC [A.3, Tributylcitrate]	–	–	–	–	–	–	–	–	–	–	–	–	–	–	–	–	–	–	–	–	lipase activity, 3 d [4]: 100%; lipase activity, 7 d [4]: 96%; lipase activity, 14 d [4]: 95%; lipase activity, 21 d [4]: 90%; lipase activity, 28 d [4]: 88%; lipase activity, 35 d [4]: 85%; lipase activity, T0 [4]: 99%; lipase activity, 3 d [5]: 97%; lipase activity, 7 d [5]: 92%; lipase activity, 14 d [5]: 88%; lipase activity, 21 d [5]: 83%; lipase activity, 28 d [5]: 80%; lipase activity, 35 d [5]: 73%; lipase activity, T0 [5]: 101%
CCCCOC(=O)CC(CC(=O)OCCCC)(OC(C)=O)C(=O)OCCCC [A.4, Acetyltributylcitrate]	104	99	93	88	83	78	102	–	–	–	–	–	–	–	–	–	–	–	–	–	lipase activity, 3 d [4]: 97%; lipase activity, 7 d [4]: 95%; lipase activity, 14 d [4]: 93%; lipase activity, 21 d [4]: 89%; lipase activity, 28 d [4]: 86%; lipase activity, 35 d [4]: 83%; lipase activity, T0 [4]: 101%; lipase activity, 3 d [5]: 100%; lipase activity, 7 d [5]: 94%; lipase activity, 14 d [5]: 90%; lipase activity, 21 d [5]: 85%; lipase activity, 28 d [5]: 80%; lipase activity, 35 d [5]: 74%; lipase activity, T0 [5]: 101%
CCOC(=O)CC(CC(=O)OCC)(OC(C)=O)C(=O)OCC [A.5, Acetyltriethylcitrate]	100	97	92	86	81	74	97	98	97	93	90	85	81	102	95	93	88	85	80	77	lipase activity, T0 [3]: 98%
CCOC(=O)CC(O)(CC(=O)O)C(=O)O (centres unmarked) [A.6, Monoethylcitrate]	–	–	–	–	–	–	–	100	95	91	84	80	71	102	96	91	87	82	79	74	lipase activity, T0 [3]: 96%; lipase activity, 3 d [4]: 96%; lipase activity, 7 d [4]: 92%; lipase activity, 14 d [4]: 89%; lipase activity, 21 d [4]: 86%; lipase activity, 28 d [4]: 85%; lipase activity, 35 d [4]: 78%; lipase activity, T0 [4]: 98%
O=C(CC(O)(CC(=O)OCc1ccccc1)C(=O)OCc1ccccc1)OCc1ccccc1 [A.8, Tribenzylcitrate]	–	–	–	–	–	–	–	94	90	87	83	81	77	97	–	–	–	–	–	–	lipase activity, 3 d [5]: 96%; lipase activity, 7 d [5]: 93%; lipase activity, 14 d [5]: 88%; lipase activity, 21 d [5]: 85%; lipase activity, 28 d [5]: 82%; lipase activity, 35 d [5]: 77%; lipase activity, T0 [5]: 98%

Source: patent US20210395651A1, “COMPOUNDS STABILIZING HYDROLASES IN LIQUIDS” (BASF SE, priority 2018, published 2021)
